This note sets out measurements from ChEMBL document CHEMBL1154976 (Bioorg Med Chem Lett, 2010).

The species named for experiment [1] is Homo sapiens. In words: Selectivity ratio of Ki for human delta opioid receptor to Ki for human kappa opioid receptor.
Experiment [2] concerns the target Delta-type opioid receptor (Homo sapiens, UniProt P41143). In words: Displacement of [3H]naltrindole from human delta opioid receptor expressed in CHO cell membranes after 3 hrs by scintillation counting. A general note: Loss of bound radioactivity is the signal in a displacement assay; it reports binding, not function.
In a further experiment the target is Mu-type opioid receptor (Homo sapiens, UniProt P35372). In words: Displacement of [3H]DAMGO from human mu opioid receptor expressed in CHO cell membranes after 60 mins by scintillation counting.
Mu-type opioid receptor, sequence (P35372 whole entry): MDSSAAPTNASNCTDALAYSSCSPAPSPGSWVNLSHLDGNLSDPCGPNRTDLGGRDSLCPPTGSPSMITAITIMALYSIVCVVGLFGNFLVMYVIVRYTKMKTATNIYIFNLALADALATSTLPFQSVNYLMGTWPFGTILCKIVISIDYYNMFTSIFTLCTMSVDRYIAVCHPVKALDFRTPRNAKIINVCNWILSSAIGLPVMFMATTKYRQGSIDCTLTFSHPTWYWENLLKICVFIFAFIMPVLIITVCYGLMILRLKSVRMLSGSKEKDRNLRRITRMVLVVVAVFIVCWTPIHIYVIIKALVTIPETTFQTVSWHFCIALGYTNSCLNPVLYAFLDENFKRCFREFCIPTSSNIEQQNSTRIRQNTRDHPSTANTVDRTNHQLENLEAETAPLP
Experiment [3] is filed under the species Homo sapiens. In words: Selectivity ratio of Ki for human mu opioid receptor to Ki for human kappa opioid receptor.
Experiment [4] has as its target Kappa-type opioid receptor (Homo sapiens, UniProt P41145). In words: Displacement of [3H]U69,593 from human kappa opioid receptor expressed in CHO cell membranes after 60 mins by scintillation counting.
The species entered for experiment [5] is Homo sapiens. In words: Selectivity ratio of Ki for human delta opioid receptor to Ki for human mu opioid receptor.
The species entered for experiment [6] is Homo sapiens. In words: Selectivity ratio of Ki for human kappa opioid receptor to Ki for human mu opioid receptor.

Delta-type opioid receptor, sequence (P41143 whole entry): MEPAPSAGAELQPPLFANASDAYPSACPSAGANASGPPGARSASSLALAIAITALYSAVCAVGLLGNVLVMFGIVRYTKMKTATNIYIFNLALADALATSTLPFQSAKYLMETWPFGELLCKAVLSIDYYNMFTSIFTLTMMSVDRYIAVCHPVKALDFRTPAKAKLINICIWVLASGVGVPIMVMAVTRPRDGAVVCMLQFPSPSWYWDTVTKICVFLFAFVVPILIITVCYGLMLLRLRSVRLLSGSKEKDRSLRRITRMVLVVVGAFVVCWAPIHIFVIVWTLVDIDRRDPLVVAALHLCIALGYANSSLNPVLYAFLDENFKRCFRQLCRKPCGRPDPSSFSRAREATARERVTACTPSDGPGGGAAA
Kappa-type opioid receptor, sequence (P41145 whole entry): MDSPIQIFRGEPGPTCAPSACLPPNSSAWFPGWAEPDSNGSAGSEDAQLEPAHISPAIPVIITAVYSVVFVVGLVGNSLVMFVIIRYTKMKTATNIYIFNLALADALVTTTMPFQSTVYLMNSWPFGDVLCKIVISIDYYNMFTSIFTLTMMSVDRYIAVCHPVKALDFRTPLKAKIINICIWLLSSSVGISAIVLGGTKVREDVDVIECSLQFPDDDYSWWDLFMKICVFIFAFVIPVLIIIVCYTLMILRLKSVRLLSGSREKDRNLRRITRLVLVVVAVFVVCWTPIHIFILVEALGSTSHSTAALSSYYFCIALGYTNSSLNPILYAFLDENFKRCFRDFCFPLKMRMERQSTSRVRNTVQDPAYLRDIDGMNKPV

One may read the Ki as the equilibrium dissociation constant of an inhibitor or competing ligand from its target. As to `c1cc2c(cc1OCCCOc1ccc3c(c1)[C@@]14CCCC[C@H]1[C@@H](C3)N(CC1CCC1)CC4)[C@@]13CCCC[C@H]1[C@@H](C2)N(CC1CCC1)CC3`, the Ratio Ki in the experiment listed under Homo sapiens [1] worked out at 29; in the experiment listed under Homo sapiens [3] it was 1.1. The Ki came out at 180 nM in experiment [2], 7.1 nM on Mu-type opioid receptor and 6.2 nM in experiment [4].
For the molecule `c1cc2c(cc1OCCCCCCCCCCOc1ccc3c(c1)[C@@]14CCCC[C@H]1[C@@H](C3)N(CC1CCC1)CC4)[C@@]13CCCC[C@H]1[C@@H](C2)N(CC1CCC1)CC3`, the results for the Ratio Ki in the experiment listed under Homo sapiens [5] and in the experiment listed under Homo sapiens [6] were 38 and 1.8, respectively.
Consider `OC(CCCCC(O)COc1ccc2c(c1)[C@@]13CCCC[C@H]1[C@@H](C2)N(CC1CCC1)CC3)COc1ccc2c(c1)[C@@]13CCCC[C@H]1[C@@H](C2)N(CC1CCC1)CC3` (stereo partly specified), for which the Ratio Ki in the experiment listed under Homo sapiens [1] and in the experiment listed under Homo sapiens [5] was 23 each time. The inhibitory constant (Ki) in experiment [2] is 74 nM; on Mu-type opioid receptor, 3.2 nM; in experiment [4], 3.3 nM.
Take `OC(CCCC(O)COc1ccc2c(c1)[C@@]13CCCC[C@H]1[C@@H](C2)N(CC1CCC1)CC3)COc1ccc2c(c1)[C@@]13CCCC[C@H]1[C@@H](C2)N(CC1CCC1)CC3` (stereo partly specified): the values for the Ratio Ki in the experiment listed under Homo sapiens [1] and in the experiment listed under Homo sapiens [3] were 16 and 1.2, respectively. For the same molecule, the Ki in experiment [2] is 160 nM; at Mu-type opioid receptor it was 12 nM; in experiment [4] it was 9.8 nM.
Turning to `OC(COc1ccc2c(c1)[C@@]13CCCC[C@H]1[C@@H](C2)N(CC1CCC1)CC3)COc1ccc2c(c1)[C@@]13CCCC[C@H]1[C@@H](C2)N(CC1CCC1)CC3`, the Ratio Ki in the experiment filed under Homo sapiens [1] and in the experiment listed under Homo sapiens [5] was 39 in each case. For the same molecule, the results for the inhibition constant (Ki) (in experiment [2]; on Mu-type opioid receptor; in experiment [4]) were 37 nM, 0.95 nM and 0.99 nM, respectively.
On to `c1cc2c(cc1OCC1CO1)[C@@]13CCCC[C@H]1[C@@H](C2)N(CC1CCC1)CC3` (stereo partly specified), for which the figures for the Ratio Ki in the experiment filed under Homo sapiens [5] and in the experiment listed under Homo sapiens [6] were 27 and 5, respectively. For the same molecule, the Ki in experiment [2] amounted to 200 nM; on Mu-type opioid receptor it was 7.3 nM; in experiment [4], 36 nM.
On to `OC(COc1ccc2c(c1)[C@@]13CCCC[C@H]1[C@@H](C2)N(CC1CCC1)CC3)CC(O)COc1ccc2c(c1)[C@@]13CCCC[C@H]1[C@@H](C2)N(CC1CCC1)CC3` (stereo partly specified), for which the Ratio Ki in the experiment listed under Homo sapiens [1] was 194; in the experiment listed under Homo sapiens [3], 7. In addition, the inhibition constant Ki in experiment [2] came out at 33 nM; at Mu-type opioid receptor it was 1.2 nM; in experiment [4], 0.17 nM.
Regarding `c1cc2c(cc1OCCCCOc1ccc3c(c1)[C@@]14CCCC[C@H]1[C@@H](C3)N(CC1CCC1)CC4)[C@@]13CCCC[C@H]1[C@@H](C2)N(CC1CCC1)CC3`, the Ratio Ki in the experiment listed under Homo sapiens [1] came out at 40; in the experiment listed under Homo sapiens [3], 1.6.
For `OC(CCC(O)COc1ccc2c(c1)[C@@]13CCCC[C@H]1[C@@H](C2)N(CC1CCC1)CC3)COc1ccc2c(c1)[C@@]13CCCC[C@H]1[C@@H](C2)N(CC1CCC1)CC3` (stereo partly specified), the values for the Ratio Ki in the experiment filed under Homo sapiens [1] and in the experiment listed under Homo sapiens [3] were 35 and 1.4, respectively. The Ki stood at 420 nM in experiment [2], 17 nM at Mu-type opioid receptor and 12 nM in experiment [4].
The corresponding values for `OC(CCCCCCC(O)COc1ccc2c(c1)[C@@]13CCCC[C@H]1[C@@H](C2)N(CC1CCC1)CC3)COc1ccc2c(c1)[C@@]13CCCC[C@H]1[C@@H](C2)N(CC1CCC1)CC3` (stereo partly specified) are 19, 1.7, 27 nM, 2.4 nM and 1.4 nM.
For `CCCCCCCCCC(=O)Oc1ccc2c(c1)[C@@]13CCCC[C@H]1[C@@H](C2)N(CC1CCC1)CC3`, the Ratio Ki in the experiment listed under Homo sapiens [1] and in the experiment listed under Homo sapiens [5] was 100 each time. Besides, the Ki in experiment [2] is 20 nM; at Mu-type opioid receptor, 0.21 nM; in experiment [4], 0.2 nM.
Regarding `OC(COc1ccc(Cc2ccc(OCC(O)COc3ccc4c(c3)[C@@]35CCCC[C@H]3[C@@H](C4)N(CC3CCC3)CC5)cc2)cc1)COc1ccc2c(c1)[C@@]13CCCC[C@H]1[C@@H](C2)N(CC1CCC1)CC3` (stereo partly specified), the values for the Ratio Ki in the experiment filed under Homo sapiens [5] and in the experiment listed under Homo sapiens [6] were 121 and 1.4, respectively. In addition, the figures for the inhibition constant Ki (in experiment [2]; at Mu-type opioid receptor; in experiment [4]) were 29 nM, 0.24 nM and 0.34 nM, respectively.
Taken in the same sequence, the figures for `CCCCCCCCC(O)COc1ccc2c(c1)[C@@]13CCCC[C@H]1[C@@H](C2)N(CC1CCC1)CC3` (stereo partly specified) were 7, 1.1, 52 nM, 7.4 nM and 8.3 nM.
In the case of `OC(CCCCCC(O)COc1ccc2c(c1)[C@@]13CCCC[C@H]1[C@@H](C2)N(CC1CCC1)CC3)COc1ccc2c(c1)[C@@]13CCCC[C@H]1[C@@H](C2)N(CC1CCC1)CC3` (stereo partly specified), the Ratio Ki amounted to 25 in the experiment filed under Homo sapiens [1] and 1.2 in the experiment listed under Homo sapiens [3]. The results for the inhibitory constant (Ki) (in experiment [2]; on Mu-type opioid receptor; in experiment [4]) were 99 nM, 4.8 nM and 3.9 nM, respectively.
For the molecule `OC(COc1ccccc1)COc1ccc2c(c1)[C@@]13CCCC[C@H]1[C@@H](C2)N(CC1CCC1)CC3` (stereo partly specified), the Ratio Ki in the experiment listed under Homo sapiens [5] and in the experiment filed under Homo sapiens [6] was 13 throughout. The inhibitory constant (Ki) in experiment [2] was 86 nM; at Mu-type opioid receptor, 6.5 nM; in experiment [4], 22 nM.
The molecule `CCCCCCCCCCOc1ccc2c(c1)[C@@]13CCCC[C@H]1[C@@H](C2)N(CC1CCC1)CC3` came in with a Ki at Mu-type opioid receptor of 70 nM. The Ratio Ki in the experiment listed under Homo sapiens [3] came to 1.3.
